Data reported in US7592319B2, “Uses of DNA-PK” (Sloan-Kettering Institute for Cancer Research, priority 1998, dated 2009).

System: cells derived from either Ku70 or Ku80 knock-out mice
Assay: Survival experiments with Ku-deficient cells exposed to chemotherapeutic agents
Format: cell-based, mouse
Details: FIG. 12

Molecule | sensitivity of Ku70 or Ku80 knock-out mouse cells to the agent (survival)
COc1cccc2c1C(=O)c1c(O)c3c(c(O)c1C2=O)C[C@@](O)(C(=O)CO)C[C@@H]3O[C@H]1C[C@H](N)[C@H](O)[C@H](C)O1 [adriamycin] | very sensitive
bleomycin | very sensitive
